Source: patent US20120316199A1, “COMPOSITIONS AND METHODS FOR TREATING, CONTROLLING, REDUCING, OR AMELIORATING INFLAMMATORY PAIN” (priority 2011, published 2012)
Where “and” joins values, the source holds several entries; their conditions need not be identical. Identical values can stand only once.

Experiments:
[1] = tested on: iris and conjunctival vessels, anterior chamber; test: Clinical evaluation by slit lamp (clinical score), rabbit paracentesis model; type: in vivo, Rabbit (New Zealand); design: key to Clinical Score −180 min / Clinical Score −5 min / Clinical Score +115 min: 0=normal; 1=discrete dilatation of iris and conjunctival vessels; 2=moderate dilatation of iris and conjunctival vessels; 3=intense iridal hyperemia with flare in the anterior chamber; 4=intense iridal hyperemia with flare in the anterior chamber and presence of fibrinous exudates; conditions: for Clinical Score −5 min: 5 min before the first paracentesis; for Clinical Score −5 min / Clinical Score +115 min / Clinical Score −180 min: raw data per eye; for Clinical Score +115 min: 5 min before the second paracentesis; for Clinical Score −180 min: basal
[2] = tested on: PGE2 release by IL-1β-induced human conjunctival fibroblasts (HConF); test: IL-1β-induced PGE2 release in human conjunctival fibroblasts (ELISA); type: cell-based; conditions: 3, 10, 30, 100, 300, 1000 nM, 18 hours; ELISA (FIG. 6)
Description: Human conjunctival fibroblasts (HConF) were seeded in 24-well plates in complete Fibroblast Medium (FM) which contained 2% fetal bovine serum (FBS) and Fibroblast Growth Supplement (FGS). After reaching confluence (about 95%), cells were conditioned in basic FM that had been supplemented with 0.5% charcoal-dextran treated fetal bovine serum (CD-FBS) and without Fibroblast Growth Supplement (FGS) for 24 hours. […] Plates were performed in triplicate. Culture media were evaluated for PGE, release by ELISA.

[3] = tested on: MPO activity in iris-ciliary body; test: Myeloperoxidase (MPO) activity in iris-ciliary body, rabbit paracentesis model; type: in vivo, Rabbit (New Zealand); conditions: for MPO activity in iris-ciliary body: individual samples collected after the second paracentesis, listed as BOL; for MPO activity in iris-ciliary body, Mean: after the second paracentesis, group mean
Description: (§1) Each rabbit was placed in a restraint device and tagged with the alphanumeric code. The formulations were instilled (50 μl) into the conjunctival sac of both eyes 180, 120, 90 and 30 min before the first paracentesis; then 15, 30, 90 min after the first paracentesis. To perform the first paracentesis the animals were anaesthetized by intravenous injection of 5 mg/kg Zoletil® (Virbac; 2.5 mg/kg tiletamine HCl and 2.5 mg/kg zolazepam HCl) and one drop of local anesthetic (Novesina®, Novartis) was administered to the eye. Anterior chamber paracentesis was performed with a 26 G needle attached to a tuberculin syringe; the needle was introduced into the anterior chamber through the cornea, taking care not to damage the tissues. Two hours after the first paracentesis, the animals were sacrificed with 0.4 ml Tanax® (Intervet International B.V.) and the second paracentesis was performed. About 100 μl of aqueous humor were removed at the second paracentesis. Aqueous humor was immediately split in four aliquots and stored at −80° C. until analysis. Then both eyes were enucleated and the iris-ciliary body was carefully excised, placed in polypropylene tubes, and stored at −80° C. until analysis.
The activity of MPO was measured as previously described by Williams et al.[5] The iris-ciliary bodies were carefully dried, weighed and immersed in 1 ml of hexa-decyl-trimethyl-ammonium bromide solution. Then, the samples were sonicated for 10 sec on ice by a ultrasound homogenizer (HD 2070, Bandelin electronic), freeze-thawed three times, sonicated for 10 sec and centrifuged at 14,000 g for 10 min to remove cellular debris. An aliquot of the supernatant (40-200 μl) was diluted to 3 ml with the o-dianisidine 2HCl/H2O2 solution. The change in absorbance at 460 nm was continuously monitored for 5 min by a spectrophotometer (UV/Vis Spectrometer Lambda EZ 201; Perkin Elmer). The slope of the line (Δ/min) was determined for each sample and used to calculate the number of units of MPO in the tissue as follows:
Values were expressed as units of MPO/g of tissue.
(§2) Pupillary diameter, PGE2, protein, PMN, and MPO were expressed as mean±SEM. Statistical analysis was performed using one way ANOVA followed by a Newman-Keuls post hoc test. Clinical score was expressed as % of eyes and the statistical analysis was performed using Kruskal-Wallis followed by a Dunn post hoc test. P<0.05 was considered statistically significant in both cases. Prism 4 software (GraphPad Software, Inc.) was used for the analysis and graphs.

[4] = tested on: leukocytes (PMN) in aqueous humor; test: Leukocytes (PMN) measurement in aqueous humor, rabbit paracentesis model; type: in vivo, Rabbit (New Zealand); conditions: second paracentesis, group mean
Description: as §1
For the determination of the number of leukocytes we used a haernocytometer (Improved Neubauer Chamber; Bright-line, Hausser Scientific) and a Polyvar 2 microscope (Reichert-Jung).
as §2

[5] = tested on: visual acuity; test: Clinical study after cataract surgery: Snellen visual acuity (safety); type: in vivo, human; conditions: overall
From the text: (§3) There were 8 treatment groups in this study, consisting of three drug doses, vehicle and three dosing frequencies (see also Table 4-1): • Group A: 1% BOL-303242-X ophthalmic suspension, two times per day (BID) • Group B: 2% BOL-303242-X ophthalmic suspension, one time per day (QD) • Group C: 2% BOL-303242-X ophthalmic suspension, BID • Group D: 2% BOL-303242-X ophthalmic suspension, four times per day (QID) • Group E: 3% BOL-303242-X ophthalmic suspension, QD • Group F: 3% BOL-303242-X ophthalmic suspension, BID • Group G: 3% BOL-303242-X ophthalmic suspension, QID • Group H: Vehicle for BOL-303242-X (divided equally into QID, BID, and QD)
(§4) Visit 1 (screening), Visit 2 (cataract surgery), Visit 3 (postoperative Day 1), Visit 4 (postoperative Day 3±1 day), Visit 5 (postoperative Day 8±1 day), Visit 6 (postoperative Day 15±1 day), Visit 7 (postoperative Day 18±1 day). Subject assessments included adverse events (AEs), concomitant medications, ocular symptoms, pinholed Snellen visual acuity (VA), intraocular pressure (IOP), ocular signs (biomicroscopy), fundoscopy, and study drug drop sensation. In addition, subject diaries were collected and reviewed for accuracy and treatment compliance.
(§5) Safety: The safety endpoints in this study were: incidence of AEs, change in IOP, ocular signs (biomicroscopy), Snellen VA, fundoscopy, study drug drop sensation assessment.

[6] = tested on: intraocular pressure (IOP); test: Clinical study after cataract surgery: intraocular pressure (safety); type: in vivo, human
From the text: as §3, §4, §5

[7] = 0.1% formulation, +115 min, N=8 eyes
[8] = 0.5% formulation, +115 min, N=8 eyes

SMILES: Cc1ccc2c(NC[C@](O)(CC(C)(C)c3cc(F)cc4c3OCC4)C(F)(F)F)cccc2n1 [BOL-303242-X, mapracorat]
- Clinical Score −5 min ([1]; 0.1% formulation): 0
- Clinical Score +115 min ([1]; 0.1% formulation, listed as BOL): 2 and 3
- Percentage of eyes with clinical score 2 [1, 7]: 75%
- Percentage of eyes with clinical score 3 [1, 7]: 25%
- Clinical Score −180 min ([1]; 0.1% formulation): 0
- Percentage of eyes with clinical score 0 ([1]; 0.1% formulation, −5 min, N=8 eyes): 100%
- Percentage of eyes with clinical score 0 ([1]; 0.1% formulation, −180 min (basal), N=8 eyes): 100%
- Clinical Score −5 min ([1]; 0.5% formulation): 0
- Clinical Score +115 min ([1]; 0.5% formulation, listed as BOL): 2 and 1
- Percentage of eyes with clinical score 1 [1, 8]: 37.5%
- Percentage of eyes with clinical score 2 [1, 8]: 62.5%
- Clinical Score −180 min ([1]; 0.5% formulation): 0
- Percentage of eyes with clinical score 0 ([1]; 0.5% formulation, −5 min, N=8 eyes): 100%
- Percentage of eyes with clinical score 0 ([1]; 0.5% formulation, −180 min (basal), N=8 eyes): 100%
- Clinical Score −5 min ([1]; 1% formulation): 0
- Clinical Score +115 min ([1]; 1% formulation): 2
- Percentage of eyes with clinical score 2 ([1]; 1% formulation, +115 min, N=8 eyes): 100%
- Clinical Score −180 min ([1]; 1% formulation): 0
- Percentage of eyes with clinical score 0 ([1]; 1% formulation, −5 min, N=8 eyes): 100%
- Percentage of eyes with clinical score 0 ([1]; 1% formulation, −180 min (basal), N=8 eyes): 100%
- Inhibition of PGE2 production by IL-1β-induced HConF [2]: successfully inhibits
- MPO activity in iris-ciliary body ([3]; 0.1% BOL): 1.04 Unit/g and 1.14 Unit/g and 1.06 Unit/g and 1.22 Unit/g and 1.05 Unit/g
- MPO activity in iris-ciliary body, Mean ([3]; 0.1% formulation): 0.971 MPO Unit/g
- MPO activity in iris-ciliary body ([3]; 0.5% BOL): 1.03 Unit/g
- MPO activity in iris-ciliary body, Mean ([3]; 0.5% formulation): 0.775 MPO Unit/g
- MPO activity in iris-ciliary body ([3]; 1% BOL): 1.02 Unit/g
- MPO activity in iris-ciliary body, Mean ([3]; 1% formulation): 0.542 MPO Unit/g
- PMN numbers in aqueous humor, Mean ([4]; 0.1% formulation): 28.333 number/μl
- PMN numbers in aqueous humor, Mean ([4]; 0.5% formulation): 21.250 number/μl
- PMN numbers in aqueous humor, Mean ([4]; 1% formulation): 28.750 number/μl
- subjects whose VA did not decline by two lines or more [5]: more than 92%
- mean IOP values among dose groups ([6]; 2% QID and 3% QD groups, Visit 4 (postoperative Day 3) to Visit 7 (postoperative Day 18)): lowest mean TOP values
- proportion of subjects with mean IOP changes from baseline of ≧5 mmHg or ≧10 mmHg, compared to vehicle ([6]; any dose groups at any study visits): no statistically significant differences
